Assay results published in patent EP4371976B1, “IONIZABLE LIPIDS AND LIPID NANOPARTICLES CONTAINING THEREOF” (Certest Biotec, S.L., priority 2022, dated 2024).

Experiments:
Female BALB/c mice = experiment: Firefly luciferase expression (total flux, IVIS imaging) in mice after injection of mRNA-loaded LNPs; assay type: in vivo; conditions: for protein expression in mice (transfection results): Figure 1 legend, LNPs containing RNA
Experimental: For in vivo administration, mRNA comprising in the 5' to 3' direction a sequence encoding for luciferase of SEQ ID NO:1, was encapsulated into LNPs following the procedure described in Hassett, K. J. et al., "Optimization of Lipid Nanoparticles for Intramuscular Administration of mRNA Vaccines", 2019, Mol. Ther. Nucleic Acid, vol. 15, pp. 1-11. Briefly, the purified mRNAs were first diluted in sodium citrate buffer at pH=4 at a final concentration of 266 µg/ml. Separately, a mixture of the ionizable lipid of the invention:DSPC (Merk 850365P):cholesterol (Sigma C3045):DMG-PEG2000 (Cayman 33945-1) were dissolved into ethanol at the respective molar percentages of 50:10:38.5:1.5, and with a lipid-nitrogen-to-phosphate ratio (N:P) ratio of 5,5:1.
The mRNA aqueous solution was then carefully added to the ethanol solution, and the resulted solution was homogenized by pipetting up and down for 4-5 times. The resulting LNPs were immediately diluted 1:1 with Tris buffer and dialyzed overnight against Tris buffer containing 15% sucrose. The resulting LNP solution was then collected, and the encapsulated mRNA was assessed by Quant-IT® Ribogreen (Invitrogen R11490) following the manufacturer's instructions.
Female BALB/c mice (Charles River Laboratories), 8-10-week-old, weighting 18-23 g, were acclimatized to new conditions upon arrival to experimental facilities for 3-7 days. Housing conditions were room temperature 20-24 °C, humidity 50-70 %, and light intensity 60 lux with a light-dark cycle of 12 hours.
For Firefly Luciferase activity measurement in mice, LNPs produced as indicated above (ionizable lipid:helper lipid: sterol:PEG-modified lipid → 50:10:38.5:1.5) and containing 5 µg of the indicated mRNA in 50 µl final volume, were injected intramuscularly.
From 4 to 72 hours after RNA-LPN inoculation mice were anaesthetized by inhalation with 4% of isoflurane using a vaporizer. The maintenance of the anaesthesia was performed at 1.5% of isoflurane. Then, D-luciferin (Quimigen, 12507) was injected intraperitoneally at 150 mg/kg, normally ~200 µL of the stock at 15 mg/mL in PBS for a 20 g mouse. Luciferase images were acquired 10 minutes after luciferin inoculation using the IVIS Lumina XRMS Imaging System following manufacturer's instructions.

[1] = RNA encapsulation efficiency of LNPs by Quant-IT Ribogreen; assay type: physicochemical; conditions: for Encaps. efficiency (%): LNPs with luciferase mRNA, ionizable lipid:non-cationic lipid:sterol:PEG-modified lipid 50:10:38.5:1.5, percentage of RNA entrapped in the LNP; for Encaps. efficiency: Table 8, LNP 50:10:38.5:1.5, luciferase mRNA
Summary of the method: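 LNPs formed by mixing aqueous mRNA into ethanol lipid solution, diluted 1:1 in Tris, dialysed overnight against Tris with 15% sucrose. Encapsulated mRNA measured by Ribogreen fluorescence per kit protocol; LNPs adjusted to 100 µg/ml final mRNA.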

[2] = Size distribution, polydispersity and Z-potential of LNPs by dynamic light scattering (Malvern Zetasizer); assay type: physicochemical; conditions: LNPs, standard formulation 50:10:38.5:1.5; DLS
Experimental: The LNP solution was then adjusted to a final concentration of mRNA of 100 µg/ml. Size distribution, polydispersity and Z-potential were measured by dynamic light scattering (DLS) using Malvern Zetasizer Advance Lab Blue Label. RNA encapsulation was assessed by Quant-IT® Ribogreen following the manufacturer's instructions.

[3] = Apparent pKa of LNPs comprising the ionizable lipid (Table 6); conditions: standard formulation 50:10:38.5:1.5
[4] = Table 8, mice, intramuscular, 5 µg luciferase mRNA in 50 µl, LNP 50:10:38.5:1.5
[5] = Table 9, comparative disulfide compounds, tested in vivo

Encaps. efficiency (%) [1] | Z Potential (± D.E.) [mV] [2] | Particle size/ Ø (nm) [2] | P.D.I. [2] | Apparent pKa [3] | SMILES | Total Flux (Female BALB/c mice; Table 7A-C, mice, intramuscular, 5 µg luciferase mRNA in 50 µl, LNP ionizable lipid:helper lipid:sterol:PEG-modified lipid 50:10:38.5:1.5) | Encaps. efficiency [1] | Total Flux (Female BALB/c mice; [4]) | Total Flux (Female BALB/c mice; [5]) | transfection (luminescence) in vivo (Female BALB/c mice; Figure 2, intramuscular injection, LNP 50:10:38.5:1.5 encapsulating luciferase mRNA) | protein expression in mice (transfection results) (Female BALB/c mice)
 |  |  |  |  | CCCCCCC#CCCOC(=O)CCSCC(CC(=O)NCCCN1CCOCC1)C(=O)OC(CCCCCCCC)CCCCCCCC (stereo not shown) | Total flux: 1,4E+08 p·s^-1 |  |  |  |  | 
 |  |  |  |  | CCCCCCCCC(CCCCCC)C(=O)NC(CCSSCCC(NC(=O)C(CCCCCC)CCCCCCCC)C(=O)NCCCN(C)C)C(=O)NCCCN(C)C (stereo not shown) [VC-LC-0230] |  |  |  | 4.47E+05 p·s^-1 |  | 
 |  |  |  |  | CCCCCCCCC(CCCCCC)C(=O)NC(CCSSCCC(NC(=O)C(CCCCCC)CCCCCCCC)C(=O)NCCN1CCN(C)CC1)C(=O)NCCN1CCN(C)CC1 (stereo not shown) [VC-LC-0236] |  |  |  | 5.20E+05 p·s^-1 | no transfection | 
 |  |  |  |  | CCCCCCCCC(CCCCCC)C(=O)NC(CCSSCCC(NC(=O)C(CCCCCC)CCCCCCCC)C(=O)NCCCN(CCO)CCO)C(=O)NCCCN(CCO)CCO (stereo not shown) [VC-LC-0237] |  |  |  | 3.16E+05 p·s^-1 |  | 
33.79% | -10.53 mV | 143.8 nm | 0.11 |  | CCCCCCCCCCCCCCCCCCOC(=O)CCSCCC(NC(=O)C(CCCCCC)CCCCCCCC)C(=O)NCCCn1ccnc1 (stereo not shown) [VC-LC-0262] |  | 33.79% | 7.5E+07 p·s^-1 |  |  | 
40.58% | -9.30 mV | 112.3 nm | 0.13 |  | CCCCCCCCC(CCCCCCCC)OC(=O)C(CSCCC(=O)OCCCCCC(C)C)CC(=O)NCCCn1ccnc1 (stereo not shown) [VC-LC-0302] |  | 40.6% | 7.9E+07 p·s^-1 |  |  | 
42.80% | -6.83 mV | 154.7 nm | 0.11 | 6.39 | CCCCCCCCC(CCCCCC)COC(=O)CCSCC(CC(=O)NCCCN1CCOCC1)C(=O)OC(CCCCCCCC)CCCCCCCC (stereo not shown) [VC-LC-0541] |  |  |  |  |  | 
33.76% | -10.60 mV | 156.3 nm | 0.14 | 6.43 | CCCCCCCCC(CCCCCCCC)OC(=O)C(CSCCC(=O)OCCCCCCCC(C)C)CC(=O)NCCCN1CCOCC1 (stereo not shown) [VC-LC-0542] |  |  |  |  |  | 
31.75% | -10.98 mV | 155.7 nm | 0.14 | 6.61 | CCCCCCCCC(CCCCCCCC)OC(=O)C(CSCCC(=O)OCC(CC)CCCC)CC(=O)NCCCN1CCOCC1 (stereo not shown) [VC-LC-0543] |  |  |  |  |  | 
36.86% | -11.02 mV | 140.3 nm | 0.12 | 6.53 | CCCCCCCCCCCCOC(=O)CCSCC(CC(=O)NCCCN1CCOCC1)C(=O)OC(CCCCCCCC)CCCCCCCC (stereo not shown) [VC-LC-0544] |  |  |  |  |  | 
65.25% | -5.71 mV | 138.8 nm | 0.14 | 6.40 | CCCCCCCCCCC(CCCCCCCC)C(=O)NC(CCSCCC(=O)OCC(CC)CCCC)C(=O)NC1CCN(C)CC1 (stereo not shown) [VC-LC-0559] |  |  |  |  |  | 
55.25% | -3.35 mV | 149.0 nm | 0.13 | 6.57 | CCCCCCCCCCC(CCCCCCCC)C(=O)NC(CCSCCC(=O)OCCCCCC)C(=O)NC1CCN(C)CC1 (stereo not shown) [VC-LC-0566] |  |  |  |  |  | 
55.61% | -15.06 mV | 182.2 nm | 0.13 | 5.69 | CCCCCCCCCCCCCCOC(=O)CCSCCC(NC(=O)C(CCCCCCCC)CCCCCCCCCC)C(=O)NCCCN1CCOCC1 (stereo not shown) [VC-LC-0577] |  |  |  |  |  | 
38.50% | -6.62 mV | 150.3 nm | 0.12 | 5.54 | CCCCCCCC/C=C\CCCCCCCCOC(=O)CCSCCC(NC(=O)C(CCCCCCCC)CCCCCCCCCC)C(=O)NCCCN1CCOCC1 (stereo not shown) [VC-LC-0587] |  |  |  |  |  | 
52.30% | -11.79 mV | 136.3 nm | 0.24 | 5.68 | CCCCCCCCCCCCCOC(=O)CCSCCC(C(=O)NCCCN1CCOCC1)C(=O)OCC(CCCCCC)CCCCCCCC (stereo not shown) [VC-LC-0605] |  |  |  |  |  | 
51.46% | -9.73 mV | 168.0 nm | 0.18 | 5.64 | CCCCCCCCC(CCCCCC)COC(=O)CCSCCC(C(=O)NCCCN1CCOCC1)C(=O)OCC(CCCCCC)CCCCCCCC (stereo not shown) [VC-LC-0606] |  |  |  |  |  | 
49.38% | -11.81 mV | 148.0 nm | 0.17 | 5.89 | CCCCCCCCC(CCCCCC)COC(=O)C(CCSCCC(=O)OCCCCCCCC(C)C)C(=O)NCCCN1CCOCC1 (stereo not shown) [VC-LC-0607] |  |  |  |  |  | 
50.40% | -11.14 mV | 179.2 nm | 0.20 | 5.88 | CCCCCCCCC(CCCCCC)COC(=O)C(CCSCCC(=O)OCC(CC)CCCC)C(=O)NCCCN1CCOCC1 (stereo not shown) [VC-LC-0608] |  |  |  |  |  | 
55.68% | -21.04 mV | 168.1 nm | 0.13 | 5.93 | CCCCCCCCCCCCCCOC(=O)CCSCCC(C(=O)NCCCN1CCOCC1)C(=O)OCC(CCCCCC)CCCCCCCC (stereo not shown) [VC-LC-0610] |  |  |  |  |  | 

SMILES | Encaps. efficiency (%) [1] | Z Potential (± D.E.) [mV] [2] | Particle size/ Ø (nm) [2] | P.D.I. [2] | Apparent pKa [3] | Total Flux (Female BALB/c mice; Table 7A-C, mice, intramuscular, 5 µg luciferase mRNA in 50 µl, LNP ionizable lipid:helper lipid:sterol:PEG-modified lipid 50:10:38.5:1.5) | Encaps. efficiency [1] | Total Flux (Female BALB/c mice; [4]) | Total Flux (Female BALB/c mice; [5]) | transfection (luminescence) in vivo (Female BALB/c mice; Figure 2, intramuscular injection, LNP 50:10:38.5:1.5 encapsulating luciferase mRNA) | protein expression in mice (transfection results) (Female BALB/c mice)
CCCCCCCCC(CCCCCC)C(=O)NC(CCSCCC(=O)OCCCCCCCC(C)C)C(=O)NCCCN(C)C (stereo not shown) [VC-LC-0101] | 96.01% | 0.00 mV |  |  |  |  | 96.0% | 1.05E+07 p·s^-1 |  |  | 
CCCCCCCCCCCCCCCCCCOC(=O)CCSCCC(NC(=O)C(CCCCCC)CCCCCCCC)C(=O)NC1CCN(C)CC1 (stereo not shown) [VC-LC-0215] | 58.34% | -13.70 mV | 143.5 nm |  |  |  | 58.3% | 4.23E+07 p·s^-1 |  |  | 
CCCCCCCC/C=C\CCCCCCCC(=O)NC(CCSCCC(=O)OCCCCCCCCCCCCC)C(=O)NCCCN(CCO)CCO (stereo not shown) [VC-LC-0289] | 89.26% | -0.34 mV | 207.1 nm | 0.2 |  |  | 89.3% | 2.329E+07 p·s^-1 |  |  | good transfection results
CCCCCCCC/C=C\CCCCCCCC(=O)NC(CCSCCC(=O)OCC(CCCCCCCCCC)CCCCCCCCCCCC)C(=O)NCCCN1CCOCC1 (stereo not shown) [VC-LC-0353] | 57.26% | -8.97 mV | 175.8 nm | 0.1 |  |  | 57.26% | 5.2E+07 p·s^-1 |  |  | good transfection results
CCCCCCCC/C=C\CCCCCCCCOC(=O)CCSCCC(NC(=O)CCCCCCC/C=C\CCCCCCCC)C(=O)NCCCN1CCOCC1 (stereo not shown) [VC-LC-0355] | 81.58% | -4.71 mV | 242.2 nm | 0.3 |  |  | 81.6% | 2.39E+07 p·s^-1 |  |  | good transfection results
CCCCCCCC/C=C\CCCCCCCC(=O)NC(CCSCCC(=O)OCC(CCCCCCCCCC)CCCCCCCCCCCC)C(=O)NC1CCN(C)CC1 (stereo not shown) [VC-LC-0356] | 68.27% | -10.96 mV | 218.9 nm | 0.09 |  |  | 68.3% | 3.83E+07 p·s^-1 |  |  | 
